Measured values published in ChEMBL document CHEMBL1129361, “Modulators of leukotriene biosynthesis and receptor activation” (J Med Chem, 1996).
Values belong to the compound of their own block, whether it stands above or below them.

Experiments:
Homo sapiens [1] = test: Fold shift in LTD4 dose response curve 24 hr following 450 mg oral dose; type: functional
Homo sapiens [2] = species: Homo sapiens; test: Fold shift in LTD4 dose response curve […] after 5 days of 450 mg bid; type: functional
Homo sapiens [3] = species: Homo sapiens; test: Fold shift in LTD4 dose response curve 3-5 hr after 5 days 450 mg bid; type: functional
Oryctolagus cuniculus = test: Compound was tested in vivo inhibitory activity against LTB4 induced neutropenia in rabbit (intravenous); type: functional
Cavia porcellus [4] = species: Cavia porcellus; test: Compound was tested in vitro for inhibitory activity against guinea pig neutrophil aggregation; type: functional
Homo sapiens [5] = species: Homo sapiens; test: Compound was tested in vitro for inhibitory activity against human neutrophil chemotaxis.; type: functional
Homo sapiens [6] = species: Homo sapiens; test: Compound was tested in vitro for inhibitory activity against human neutrophil aggregation.; type: functional
Cavia porcellus [7] = test: Compound was tested in vivo for LTB4 induced bronchoconstriction in guinea pig (2 hr pretreatment).; type: functional
Cavia porcellus [8] = test: Compound was tested in vivo inhibitory activity against LTB4 induced bronchoconstriction in guinea pig(orally) (20 hr pretreatment); type: functional; conditions: po
[9] = biological target: T1, Leukotriene B4 receptor 1 (Homo sapiens, UniProt Q15722); test: Compound was tested for inhibitory activity against human neutrophil LTB4 receptor binding
Homo sapiens [10] = species: Homo sapiens; test: Compound was tested in vitro inhibitory activity against human neutrophil CD11b/CD18.; type: functional
Homo sapiens [11] = species: Homo sapiens; test: Compound was tested in vitro inhibitory activity against LTB4 induced Ca mobilization; type: functional
Cavia porcellus [12] = test: Compound was tested in vivo inhibitory activity against LTB4 induced bronchoconstriction (orally); type: functional; conditions: po
Cavia porcellus [13] = test: Compound was tested in vivo inhibitory activity against LTB4 induced bronchoconstriction (intravenous); type: functional
Homo sapiens [14] = species: Homo sapiens; test: Compound was tested in vitro inhibitory activity against […] induced Ca mobilization.; type: functional, organism-based
Homo sapiens [15] = species: Homo sapiens; test: Compound was tested in vitro inhibitory activity against […] induced aggregation.; type: functional, organism-based
Homo sapiens [16] = species: Homo sapiens; test: Compound was tested in vitro inhibitory activity against […] induced CD11 up-regulation.; type: functional, organism-based
Rattus norvegicus [17] = test: Compound was tested in vivo inhibitory activity against rat neutropenia at 4h.; type: functional
Rattus norvegicus [18] = test: Compound was tested in vivo inhibitory activity against rat neutropenia at 18 h.; type: functional
Mus musculus [19] = test: Compound was tested in vivo inhibitory activity against AA induced ear edema and MPO release (orally).; type: functional; conditions: po
[20] = biological target: T1, Leukotriene B4 receptor 1; test: Compound was tested for inhibitory activity against Leukotriene B4 receptor binding
Mus musculus [21] = test: Compound was tested in vivo inhibitory activity against AA induced ear edema and MPO release.; type: functional
Homo sapiens [22] = test: Compound was tested in vivo inhibitory activity against CD11b up-regulation at 4 hours in normal volunteers.; type: functional
Homo sapiens [23] = species: Homo sapiens; test: Compound was tested in vitro inhibitory activity against […] induced chemotaxis; type: functional, organism-based
Homo sapiens [24] = species: Homo sapiens; test: Compound was tested for fold shift in LTD4 dose response curve following 800 microg aerosol dose in mild asthmatics.; type: functional
Homo sapiens [25] = species: Homo sapiens; test: Compound was tested for fold shift in LTD4 dose response curve 2 hour following 100 microg aerosol dose in normal subjects.; type: functional
[26] = biological target: T2, Cysteinyl leukotriene receptor (Homo sapiens, UniProt Q9Y271+Q9NS75); test: Binding affinity against Cysteinyl leukotriene D4 receptor; type: protein assay
T2 sequence (Q9Y271 whole entry): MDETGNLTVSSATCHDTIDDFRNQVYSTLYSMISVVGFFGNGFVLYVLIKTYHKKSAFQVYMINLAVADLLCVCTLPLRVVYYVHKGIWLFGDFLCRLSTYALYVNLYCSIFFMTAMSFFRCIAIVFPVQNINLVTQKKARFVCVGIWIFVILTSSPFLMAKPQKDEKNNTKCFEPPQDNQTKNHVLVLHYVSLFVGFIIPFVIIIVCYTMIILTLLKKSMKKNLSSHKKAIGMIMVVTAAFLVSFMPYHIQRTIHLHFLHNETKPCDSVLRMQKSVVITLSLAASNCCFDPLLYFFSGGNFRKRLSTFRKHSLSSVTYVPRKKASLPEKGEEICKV
T2 sequence (Q9NS75 whole entry): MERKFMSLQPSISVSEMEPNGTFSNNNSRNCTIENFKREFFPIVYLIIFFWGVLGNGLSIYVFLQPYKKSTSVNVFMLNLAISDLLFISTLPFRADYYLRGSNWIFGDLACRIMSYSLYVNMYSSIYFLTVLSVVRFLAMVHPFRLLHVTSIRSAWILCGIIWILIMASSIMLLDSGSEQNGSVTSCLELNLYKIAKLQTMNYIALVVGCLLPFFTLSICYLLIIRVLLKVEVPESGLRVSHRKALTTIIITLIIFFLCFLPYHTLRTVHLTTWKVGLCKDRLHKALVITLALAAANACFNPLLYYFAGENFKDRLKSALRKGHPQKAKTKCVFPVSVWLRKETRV

Rattus norvegicus [27] = species: Rattus norvegicus; test: Compound was tested for in vitro inhibition using FLAP binding assay
[28] = Compound was tested for in vivo inhibition against antigen bronchospasm.; type: functional; conditions: Rattus norvegicus, Bronchiole
Homo sapiens [29] = species: Homo sapiens; test: Compound were tested for in vitro inhibition against human whole blood.
RBL-1 = test: Compound were tested for in vitro inhibition against broken RBL-1.; type: functional; conditions: Rattus norvegicus
[30] = Compound was determined in vivo in squirrel monkey antigen bronchospasm; conditions: Saimiri sciureus, Bronchiole
Homo sapiens [31] = species: Homo sapiens; test: Compound was tested in vitro inhibitory activity against 12-R-HETE induced Ca mobilization; type: functional
Mus musculus [32] = test: Compound was tested in vivo inhibitory activity against AA induced ear edema(orally); type: functional; conditions: po
Homo sapiens [33] = species: Homo sapiens; test: Compound was tested in vitro for inhibitory activity in LTB4 induced Ca mobilization.; type: functional, organism-based
Homo sapiens [34] = species: Homo sapiens; test: Compound was tested in vitro inhibitory activity against LTB4 induced neutrophil degranulation; type: functional
Mus musculus [35] = test: Compound was tested in vivo inhibitory activity against AA induced ear edema (topically); type: functional
Mus musculus [36] = test: Compound was tested in vivo inhibitory activity against PMA induced ear edema; type: functional
[37] = biological target: T1, Leukotriene B4 receptor 1; test: Compound was tested for binding affinity against human neutrophil LTB4 (leukotriene) receptor
Homo sapiens [38] = test: Compound was tested for fold shift in LTD4 bronchoconstriction dose response curve following a 400 mg oral dose.; type: functional, Lung

T1 sequence (Q15722 whole entry): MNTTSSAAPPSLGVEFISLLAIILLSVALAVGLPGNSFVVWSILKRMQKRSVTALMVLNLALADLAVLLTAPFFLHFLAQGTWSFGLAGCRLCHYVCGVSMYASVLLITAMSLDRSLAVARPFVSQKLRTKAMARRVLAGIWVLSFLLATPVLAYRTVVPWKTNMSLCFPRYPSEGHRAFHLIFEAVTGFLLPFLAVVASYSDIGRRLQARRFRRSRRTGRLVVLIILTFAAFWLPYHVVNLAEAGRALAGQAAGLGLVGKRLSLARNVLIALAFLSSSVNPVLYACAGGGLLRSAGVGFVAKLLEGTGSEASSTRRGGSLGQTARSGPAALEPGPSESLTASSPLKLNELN

Structure (SMILES): O=C(Nc1cccc2c(=O)cc(-c3nnn[nH]3)oc12)c1ccc(OCCCCc2ccccc2)cc1
Activity (Homo sapiens [1]): 7 | Activity (Homo sapiens [2]): 26 | Activity (Homo sapiens [3]): 28

Structure (SMILES): CCCc1c(OCCCCCCc2cccc(OCCCCCC(=O)O)c2CCC(=O)O)ccc2c1OCCC2=O
ED50 (Cavia porcellus [7]): < 0.1 mg/kg | ED50 (Cavia porcellus [8]): < 1 mg/kg

Structure (SMILES): O=C(O)CCS[C@H](c1ccccc1CCCCCCCCc1ccccc1)[C@@H](O)C(=O)O [POBILUKAST]
Activity (Homo sapiens [24]): 3 | Activity (Homo sapiens [25]): 10 | Ki [26]: 5 nM

Structure (SMILES): CCCc1c(OCCCCc2nnn[nH]2)ccc(C(C)=O)c1O [TOMELUKAST]
Activity (Homo sapiens [38]): 4.6

The next lines start with results.

IC50 (Cavia porcellus [4]): 74 nM | IC50 (Homo sapiens [5]): 6 nM | IC50 (Homo sapiens [6]): 100 nM
Structure (SMILES): COc1ccc(/C=C/CCCCOc2ccc(C(=O)c3cccc(C(=O)O)c3)cc2CCC(=O)O)cc1
ED50 (Oryctolagus cuniculus): 3 mg/kg

Ki [9]: 25 nM | IC50 (Homo sapiens [10]): 3.9 nM | IC50 (Homo sapiens [11]): 20 nM
Structure (SMILES): CCCc1c(OCCCOc2cc(O)c(-c3ccc(F)cc3)cc2CC)cccc1Oc1ccccc1C(=O)O [ETALOCIB]
ED50 (Cavia porcellus [12]): 0.4 mg/kg | ED50 (Cavia porcellus [13]): 0.04 mg/kg

IC50 (Homo sapiens [14]): 2 nM | IC50 (Homo sapiens [15]): 0.1 nM | IC50 (Homo sapiens [16]): 0.3 nM | IC50 [20]: 4 nM | IC50 (Homo sapiens [23]): 2.4 nM
Structure (SMILES): COc1cc(C(=O)N(C(C)C)C(C)C)ccc1OCCCCCOc1ccc(C(=N)N)cc1 [MOXILUBANT]
ED50 (Rattus norvegicus [17]): 4 mg/kg | ED50 (Rattus norvegicus [18]): 11 mg/kg | ED50 (Mus musculus [19]): 1.8 mg/kg | ED50 (Mus musculus [21]): 1.4 mg/kg | ED100 (Homo sapiens [22]): 300 mg

IC50 (Rattus norvegicus [27]): 1.6 nM | IC50 (Homo sapiens [29]): 510 nM | IC50 (RBL-1): 6 nM
Structure (SMILES): CC(C)(C)Sc1c(CC(C)(C)C(=O)[O-])n(Cc2ccc(Cl)cc2)c2ccc(OCc3ccc4ccccc4n3)cc12.[Na+] [QUIFLAPON SODIUM]
ED50 [28]: 0.16 mg/kg | T1/2 (phase 1 oral half life): 6 h | ED50 [30]: 0.3 mg/kg

IC50 (Homo sapiens [31]): 1.3 nM | IC50 (Homo sapiens [33]): 6.6 nM | IC50 (Homo sapiens [34]): 117 nM | Ki [37]: 0.8 nM
Structure (SMILES): O=C(O)/C=C/c1nc(CSc2c(Cl)cccc2Cl)ccc1OCCc1ccccc1 [TICOLUBANT]
ED50 (Mus musculus [32]): 19 mg/kg | ED50 (Mus musculus [35]): 20 µg | ED50 (Mus musculus [36]): 114 µg
